Results: patent US20120003661A1, “METHODS AND DEVICES FOR THE SELECTIVE DETECTION OF MICROORGANISMS” (C3 JIAN, INC., priority 2010, published 2012)
“Also recorded” adds a separate entry of the source. Where two headings read alike, the source gives them in different places.

Test system: bacteria, fungi, and/or yeasts
Assay type: binding
[1] = microorganism(s) that the targeting peptide binds, as listed in Table 2
[2] = microorganism(s) the targeting peptide binds, as listed in Table 2
[3] = microorganism(s) listed as target(s) of the targeting peptide, wrapped target lists given cell by cell

Substance | Target(s) [2] | Target(s) [3] | further results
PF-Y (FIKHFIHRF) |  |  | Target(s) [1]: S. mutans
1T-94 (DQVAHSGDMLVQARRRDS) | S. mitis, S. mutans, S. oralis |  | 
PF-C091 (ASNTPRFVRLTLFNFYSKIWNVTHLFLFNNL) |  |  | Target(s) [1]: A. naeslundii, F. nucleatum, P. gingivalis,; also recorded: S. mutans, T. denticola
PF-037 (MTKKRRYDTTEFGLAHSMTAKITLHQALYK) |  | S. epidermidis, M. luteus, P. aeruginosa,; also recorded: C. albicans, MRSA,; also recorded: S. pneumoniae, E. faecalis, C. jeikeium | 
1T-29 (GSVIKKRRKRMSKKKHRKMLRRTRVQRRKLGK) | S. mutans, S. aureus, S. epidermidis,; also recorded: C. jeikeium, C. xerosis,; also recorded: C. striatum, P. aeruginosa |  | 
PF-786 (LSERERRRLKRGII) |  |  | Target(s) [1]: Mycobacteria spp.
PF-020 (MKIILLLFLIFGFIVVVTLKSEHQLTLFSI) |  | S. epidermidis, M. luteus, C. albicans,; also recorded: MRSA, S. pneumoniae,; also recorded: E. faecalis | 
1T-17 (NNAIVYIS) | S. mutans | yeast and hyphal forms | 
1T-117 (GPGVVGPAPFSRLPAHALNL) | S. mutans |  | 
1T-119 (SPATQKAPTRAQPSRAPVQDCGDGRPTAAPDDVERLSPR) | S. gordonii, S. mitis, S. mutans,; also recorded: S. oralis |  | 
1T-135 (FESLLPQATKKIVNNKGSKINKIF) | A. naeslundii, P. gingivalis, S. epidermidis,; also recorded: S. gordonii, S. mitis,; also recorded: S. mutans, S. oralis, S. salivarious,; also recorded: S. sanguinis |  | 
PF-141 (VVRRFQGM) |  | C. albicans hyphae; also recorded: S. epidermidis, M. luteus, C. albicans,; also recorded: MRSA, C. jeikeium | 
1T-155 (LKLAFGVYPFQAMSQSDTAVSERNVLWR) | A. naeslundii, F. nucleatum, P. gingivalis,; also recorded: S. epidermidis, S. gordonii,; also recorded: S. mitis, S. mutans, S. oralis,; also recorded: S. salivarious, S. sanguinis |  | 
1T-188 (HRKDVYKK) | S. sanguinis |  | 
PF-036 (ILNRLSRIVSNEVTSLIYSLK) |  | S. epidermidis, M. luteus, P. mirabilis,; also recorded: E. coli, C. albicans,; also recorded: MRSA, S. pneumoniae, C. jejuni | 
PF-785 (MRPQHSPAGKAFVVKKITHEQS) |  |  | Target(s) [1]: Mycobacteria spp.
PF-014 (HPTDNKHN) |  | E. coli, C. jeikeium | 
PF-010 (MDIDVNKLLQAFVYFKSFEKLRHNNS) |  | S. epidermidis, M. luteus, E. coli,; also recorded: C. albicans | 
1T-298 (ILNKKPKLPLWKLGKNYFRRFYVLPTFLA) |  | A. naeslundii, F. nucleatum, P. gingivalis,; also recorded: T. denticola, S. gordonii,; also recorded: S. mitis, S. mutans, S. oralis,; also recorded: S. salivarious, S. sanguinis | 
PF-008 (MIEIGSIAYLNGGSKKYNHILNQENR) |  | S. epidermidis, M. luteus, MRSA,; also recorded: C. jejuni | 
PF-C181 (KMRAGQVVFIYKLILVLLFYVLQKLFDLKKGCF) |  |  | Target(s) [1]: P. gingivalis
PF-012 (WRGPNTEAGGKSANNIVQVGGAPT) |  | S. epidermidis, M. luteus, P. mirabilis,; also recorded: E. coli, P. aeruginosa,; also recorded: MRSA, S. pneumoniae, C. jeikeium,; also recorded: C. jejuni | 
1T-4 (LDAYGELVGGN) | L. casei; also recorded: S. mutans, S. gordonii, S. sanguinis,; also recorded: S. oralis, V. atypica, |  | 

Substance | Target(s) [2] | Target(s) [3] | further results
PF-161 (RGRALASTATTRPARRRR) |  | S. epidermidis, M. luteus, E. coli,; also recorded: C. jejuni | 
1T-93 (AMRSVNQA) | S. epidermidis, S. gordonii, S. mitis,; also recorded: S. mutans, S. oralis, S. sanguinis |  | 
1T-85 (VMASLTWRMRAASASLPTHSRTDA) | A. naeslundii, F. nucleatum, P. gingivalis,; also recorded: S. epidermidis, S. gordonii,; also recorded: S. mitis, S. mutans, S. oralis,; also recorded: S. salivarious, S. sanguinis |  | 
1T-61 (HATLLPAVREAISRQLLPALVPRG) | P. aeruginosa |  | 
1T-147 (GVENRRFYERDVSKVSMMTSEAVAPRGGSK) | A. naeslundii, F. nucleatum, P. gingivalis,; also recorded: T. denticola, S. gordonii,; also recorded: S. mitis, S. mutans, S. oralis,; also recorded: S. salivarious, S. sanguinis |  | 
1T-101 (RLRVGRATDLPLTSFAVGVVRNLPDAPAH) | A. naeslundii, P. gingivalis, S. epidermidis,; also recorded: S. gordonii, S. mitis,; also recorded: S. mutans, S. oralis, S. sanguinis |  | 
1T-157 (RRFRKTTENREKSKNKKAVLGLSTTSTASY) | A. naeslundii, F. nucleatum, P. gingivalis,; also recorded: T. denticola, S. gordonii,; also recorded: S. mitis, S. mutans, S. oralis,; also recorded: S. salivarious, S. sanguinis |  | 
1T-165 (CYDSFDFSIFVTFANRMKLSVGS) | A. naeslundii, F. nucleatum, P. gingivalis,; also recorded: S. epidermidis, S. gordonii,; also recorded: S. mitis, S. mutans, S. oralis,; also recorded: S. salivarious, S. sanguinis |  | 
1T-16 (IDMR) | P. aeruginosa | yeast and hyphal forms | 
1T-87 (EAVGQDLVDAHHP) | S. mitis, S. mutans, S. oralis |  | 
PF-075 (FVNSLIMKDLSDNDMRFKYEYYNREKDT) |  | M. luteus, E. coli, P. aeruginosa,; also recorded: MRSA, C. jeikeium | 
1T-47 (VIKISVPGQVQMLIP) | S. mutans, S. epidermidis, P. aeruginosa |  | 
PF-163 (TSWLRAAERQEIGEPTKTFGEKTTSL) |  | S. epidermidis | 
1T-84 (FRKKRYGLSILLWLNAFTNLVNSIHAFYMTLF) | S. pneumoniae |  | 
PF-C008 (AQPRRTWLVNFGEVPSPGLTNDGMPDH) |  |  | Target(s) [1]: A. naeslundii
1T-79 (FGTPWSITNFWKKNFNDRPDFDSDRRRY) | S. pneumoniae |  | 
PF-135 (PPARPARIPQTPTLHGASLFRQRS) |  | S. epidermidis, M. luteus, E. coli,; also recorded: P. aeruginosa, MRSA, C. jeikeium,; also recorded: M. smegmatis | 
1T-26 (LTILPTTFFAIIVPILAVAFIAYSGFKIKGIVEHKDQW) | S. mutans, S. aureus, S. epidermidis,; also recorded: C. jeikeium, C. xerosis,; also recorded: C. striatum, P. aeruginosa |  | 
PF-C136 (LILSYQASVYPLFAYLCQQKDY) |  |  | Target(s) [1]: A. naeslundii, F. nucleatum, P. gingivalis,; also recorded: S. mutans, T. denticola
1T-297 (RSLRLNNALTKLPKLWYNRIKEAFYAYNDYDK) |  | A. naeslundii, F. nucleatum, T. denticola,; also recorded: S. mitis, S. mutans, S. oralis | 
1T-57 (RLEYRRLETQVEENPESGRRPMRG) | P. aeruginosa |  | 
PF-634 (MPKARPVNHNKKKSKITIKSNFTLFYMFNP) |  | C. albicans hyphae | 
PF-099 (EIIAYLEGRFANA) |  | S. epidermidis, M. luteus, E. coli,; also recorded: C. jeikeium | 

Substance | Target(s) [2] | Target(s) [3] | further results
1T-116 (MILHRRRDR) | A. naeslundii, P. gingivalis, S. epidermidis,; also recorded: S. gordonii, S. mitis,; also recorded: S. mutans, S. oralis, S. salivarious,; also recorded: S. sanguinis |  | 
1T-223 (NQKMEINSMTSEKEKMLAGHFHNEANFAVIFKYSLFYNFF) | A. naeslundii, F. nucleatum, P. gingivalis,; also recorded: S. epidermidis, S. gordonii,; also recorded: S. mitis, S. mutans, S. oralis,; also recorded: S. salivarious, S. sanguinis |  | 
1T-60 (YLTSLGLDAAEQAQGLLTILKG) | S. aureus, S. epidermidis, C. jeikeium,; also recorded: C. striatum, P. aeruginosa |  | 
1T-196 (KPEKEKLDTNTLMKVVNKALSLFDRLLIKFGA) | F. nucleatum, S. sanguinis |  | 
PF-046 (LDFYLTKHLTLML) |  | E. coli, E. faecalis, C. jeikeium | 
1T-271 (FLIQKFLLIKTFPPYRKKYVVIVSQTGTA) |  | A. naeslundii, F. nucleatum, P. gingivalis,; also recorded: S. epidermidis, S. gordonii,; also recorded: S. mitis, S. mutans, S. oralis,; also recorded: S. salivarious, S. sanguinis | 
1T-118 (TASPPAPSDQGLRTAFPATLLIALAALARISR) | A. naeslundii, F. nucleatum, P. gingivalis,; also recorded: S. epidermidis, S. gordonii,; also recorded: S. mitis, S. mutans, S. oralis,; also recorded: S. salivarious, S. sanguinis |  | 
PF-004 (ARLSKAIIIAVIVVYHLDVRGLF) |  | S. epidermidis, B. subtilis, B. fragilis,; also recorded: E. coli, P. aeruginosa, C. albicans,; also recorded: S. pneumoniae, E. faecalis,; also recorded: C. jeikeium | 
PF-C285 (FTIIELKKQKIKHGENNKKTAHPLNEPFCARA) |  |  | Target(s) [1]: A. naeslundii, F. nucleatum, P. gingivalis,; also recorded: S. mutans, T. denticola
1T-179 (TCYPLIQRKTDRAYEA) | A. naeslundii, F. nucleatum, P. gingivalis,; also recorded: T. denticola, S. gordonii,; also recorded: S. mitis, S. mutans, S. oralis,; also recorded: S. salivarious, S. sanguinis |  | 
PF-152 (VGYFIWKDSHSRKG) |  | S. epidermidis, C. albicans,; also recorded: MRSA, E. faecalis, C. jeikeium | 
PF-055 (GHVFNGNNKRNL) |  | S. mutans | 
PF-C063 (SHFRKGD) |  |  | Target(s) [1]: A. naeslundii, F. nucleatum, S. mutans
PF-166 (SKAVSRKRSI) |  | E. coli, C. jeikeium | 
PF-S004 (VLLNIFRTLLEFFSPSNAPGAEDVPLPDTQA) |  |  | Target(s) [1]: S. epidermidis, MRSA, C. jeikeium
PF-C290 (GNVHPESDFHNLIQFIKTFLYFTIFFKYFL) |  |  | Target(s) [1]: A. naeslundii, F. nucleatum, P. gingivalis,; also recorded: S. mutans, T. denticola
1T-134 (SRLVREIKKKCRKS) | A. naeslundii, F. nucleatum, P. gingivalis,; also recorded: S. epidermidis, S. gordonii,; also recorded: S. mitis, S. mutans, S. oralis,; also recorded: S. salivarious, S. sanguinis |  | 
PF-052 (QELINEAVNLLVKSK) |  | S. epidermidis, M. luteus, E. coli,; also recorded: MRSA, E. faecalis, C. jeikeium,; also recorded: C. jejuni | 
1T-228 (IFKLFEEHLLYLLDAFYYSKIFRRLKQGLYRRKEQPYTQDLFRM) | A. naeslundii, F. nucleatum, P. gingivalis,; also recorded: S. epidermidis, S. gordonii,; also recorded: S. mitis, S. mutans, S. oralis,; also recorded: S. salivarious, S. sanguinis |  | 
1T-141 (KKFIILLFILVQGLIFSATKTLSDIIAL) | F. nucleatum, P. gingivalis, S. epidermidis,; also recorded: S. gordonii, S. mitis,; also recorded: S. mutans, S. oralis, S. sanguinis |  | 
PF-125 (YVVGALVILAVAGLIYSMLRKA) |  | S. epidermidis, M. luteus, P. mirabilis,; also recorded: E. coli, P. aeruginosa,; also recorded: C. albicans, MRSA, S. pneumoniae,; also recorded: E. faecalis, C. jejuni | 
1T-108 (WGPLGPERPLW) | S. gordonii, S. mitis, S. mutans,; also recorded: S. oralis, S. salivarious, S. sanguinis |  | 
1T-180 (VVFGGGDRLV) | A. naeslundii, F. nucleatum, P. gingivalis,; also recorded: T. denticola, S. gordonii,; also recorded: S. mitis, S. mutans, S. oralis,; also recorded: S. salivarious, S. sanguinis |  | 
